The target in this assay is T1, RORγt (Homo sapiens, UniProt P51449).
T1 construct: […]
T1 sequence (P51449 269-508 limits assumed): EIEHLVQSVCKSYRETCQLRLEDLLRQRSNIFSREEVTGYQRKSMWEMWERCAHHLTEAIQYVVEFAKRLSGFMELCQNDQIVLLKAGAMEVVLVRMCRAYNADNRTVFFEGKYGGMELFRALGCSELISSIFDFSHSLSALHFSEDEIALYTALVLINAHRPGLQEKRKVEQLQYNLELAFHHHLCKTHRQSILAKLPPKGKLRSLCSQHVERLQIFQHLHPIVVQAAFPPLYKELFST
Put plainly: Fluorescence resonance energy transfer (FRET) test, inhibitory activity of RORγt. The assay is classed as biochemical. As to conditions: FRET, B-RORγt LBD / Biotin-SRC1; read-out: IC50.

Broadly, the IC50 is the concentration at which inhibition is half-maximal. `CCS(=O)(=O)c1ccc([C@H](COC(=O)NC)NC(=O)c2ccc(N3C[C@@H](Oc4ccc(OC(F)(F)F)cn4)C[C@H]3COC(F)F)cc2)cc1` [Example 155, (R)-2-(4-((2S,4S)-2-((difluoromethoxy)methyl)-4-((5-(trifluoromethoxy)pyridin-2-yl)oxy)pyrrolidin-1-yl)benzoylamino)-2-(4-(ethylsulfonyl)phenyl)ethyl methylcarbamate]: the IC50 turned out to be 11 nM.

As for `CCS(=O)(=O)c1ccc([C@H](COC(N)=O)NC(=O)c2ccc(N3C[C@@H](Oc4ccc(-n5nccn5)cn4)C[C@H]3COC(F)F)cc2)cc1` [Example 170, (R)-2-(4-((2S,4S)-4-((5-(2H-1,2,3-triazol-2-yl)pyridine-2-yl)oxy)-2-((difluoromethoxy)methyl)pyrrolidin-1-yl)benzoylamino)-2-(4-(ethylsulfonyl)phenyl)ethyl carbamate], the IC50 was determined as 9 nM.

Take `CCS(=O)(=O)c1ccc([C@H](COC(N)=O)NC(=O)c2ccc(N3C[C@@H](Oc4ccc(C(F)(F)F)cc4)C[C@H]3COC(F)F)cc2)cc1` [Example 149, (R)-2-(4-((2S,4S)-2-((difluoromethoxy)methyl)-4-(4-(trifluoromethyl)phenoxy)pyrrolidin-1-yl)benzoylamino)-2-(4-(ethylsulfonyl)phenyl)ethyl carbamate]: the IC50 is 7.7 nM.

Regarding `CCS(=O)(=O)c1ccc([C@H](COC(N)=O)NC(=O)c2cnc(N3CC(F)(F)CC3c3cccc(F)c3)nc2)cc1` (stereo partly drawn) [Example 179, (2R)-2-(2-(4,4-difluoro-2-(3-fluorophenyl)pyrrolidin-1-yl)pyrimidine-5-carboxamido)-2-(4-(ethylsulfonyl)phenyl)ethyl carbamate], the IC50 amounted to 9.4 nM.

For the molecule `CCS(=O)(=O)c1ccc([C@H](COC(=O)N(C)C)NC(=O)c2ccc(N3C[C@@H](Oc4ccc(C(F)(F)F)cc4)C[C@H]3COC(F)F)cc2)cc1` [Example 154, (R)-2-(4-((2S,4S)-2-((difluoromethoxy)methyl)-4-(4-(trifluoromethyl)phenoxy)pyrrolidin-1-yl)benzoylamino)-2-(4-(ethylsulfonyl)phenyl)ethyl dimethylcarbamate], the IC50 turned out to be 47 nM.

`CCS(=O)(=O)c1ccc([C@H](COC(N)=O)NC(=O)c2ccc(N3C[C@@H](Oc4ccc(-n5cccn5)cn4)C[C@H]3COC(F)F)nc2)cc1` [Example 168, (R)-2-(6-((2S,4S)-4-((5-(1H-pyrazol-1-yl)pyridine-2-yl)oxy)-2-((difluoromethoxy)methyl)pyrrolidin-1-yl)nicotinylamino)-2-(4-(ethylsulfonyl)phenyl)ethyl carbamate]: the IC50 came to 8 nM.

On to `CCC(F)(F)OC[C@H]1CC[C@@H](c2ccc(C(F)(F)F)cc2)CN1c1ccc(C(=O)N[C@H](CC#N)c2ccc(S(=O)(=O)CC)cc2)cc1` [Example 110-2, N—((R)-2-cyano-1-(4-(ethylsulfonyl)phenyl)ethyl)-4-((2R,5S)-2-((1,1-difluoropropoxy)methyl)-5-(4-(trifluoromethyl)phenyl)piperidin-1-yl)benzamide], for which the IC50 came to 7 nM.

Regarding “N—((S)-2-cyano-1-(4-(ethylsulfonyl)phenyl)ethyl)-4-((2S,5R)-5-(2,2-difluorobenzo[1,3]dioxol yl)-2-((difluoromethoxy)methyl)piperidin-1-yl)benzamide [Example 112-2]”, the IC50 was 13 nM.

In the case of `CCS(=O)(=O)c1ccc([C@H](CC#N)NC(=O)c2ccc(N3C[C@@H](Oc4ccc(-n5ccc(C)n5)cc4)C[C@H]3COC(F)F)cc2)cc1` [Example 163, N—((S)-2-cyano-1-(4-(ethylsulfonyl)phenyl)ethyl)-4-((2S,4S)-2-((difluoromethoxy)methyl)-4-(4-(3-methyl-1H-pyrazol-1-yl)phenoxy)pyrrolidin-1-yl) benzamide], the IC50 turned out to be 5.1 nM.

Take `CCS(=O)(=O)c1ccc([C@H](COC(N)=O)NC(=O)c2cnc(N3CCCC3c3cccc(F)c3)nc2)cc1` (stereo partly drawn) [Example 177, (2R)-2-(4-(Ethylsulfonyl)phenyl)-2-(2-(2-(3-fluorophenyl)pyrrolidin-1-yl)pyrimidine-5-carboxamido)ethyl carbamate]: the IC50 worked out at 27.4 nM.

As to `CCS(=O)(=O)c1ccc([C@H](CC(=O)O)NC(=O)c2cnc(N3CCCC3c3cccc(F)c3)nc2)cc1` (stereo partly drawn) [Example 178, (3S)-3-(4-(Ethylsulfonyl)phenyl)-3-(2-(2-(3-fluorophenyl)pyrrolidin-1-yl)pyrimidine-5-carboxamido)propionic Acid], the IC50 was 46.2 nM.

In the case of `CCS(=O)(=O)c1ccc([C@H](CC#N)NC(=O)c2ccc(N3C[C@@H](OCc4ccc(OC(F)(F)F)cc4)C[C@H]3COC(F)F)cc2)cc1` [Example 39, N—((S)-2-cyano-1-(4-(ethylsulfonyl)phenyl)ethyl)-4-((2S,4S)-2-((difluoromethoxy)methyl)-4-((4-(trifluoromethoxy)benzyl)oxy)pyrrolidin-1-yl)benzamide], the IC50 was determined as 67.5 nM.

With `CCS(=O)(=O)c1ccc([C@H](CC#N)NC(=O)c2ccc(N3C[C@@H](Oc4ccc(C(F)(F)F)cc4)C[C@H]3CCOC(F)F)cc2)cc1` [Example 75, N—((S)-2-cyano-1-(4-(ethylsulfonyl)phenyl)ethyl)-4-((2R,4S)-2-(2-(difluoromethoxy)ethyl)-4-(4-(trifluoromethyl)phenoxy)pyrrolidin-1-yl)benzamide], the half-maximal inhibitory concentration (IC50) is 10 nM.

On to `CCOC[C@H]1CC[C@@H](c2ccc(C(F)(F)F)cc2)CN1c1ccc(C(=O)N[C@H](CC#N)c2ccc(S(=O)(=O)CC)cc2)cc1` [Example 108-2, N—((R)-2-cyano-1-(4-(ethylsulfonyl)phenyl)ethyl)-4-((2R,5S)-2-(ethoxymethyl)-5-(4-(trifluoromethyl)phenyl)piperidin-1-yl)benzamide], for which the IC50 came to 24 nM.

Take `CCS(=O)(=O)c1ccc([C@H](COC(N)=O)NC(=O)c2ccc(N3C[C@@H](Oc4ccc(-n5nccn5)cn4)C[C@H]3COC(F)F)nc2)cc1` [Example 173, (R)-2-(6-((2S,4S)-4-((5-(2H-1,2,3-triazol-2-yl)pyridine-2-yl)oxy)-2-((difluoromethoxy)methyl)pyrrolidin-1-yl)nicotinylamino)-2-(4-(ethylsulfonyl)phenyl)ethyl carbamate]: the IC50 was determined as 3.8 nM.

On to `CCS(=O)(=O)c1ccc([C@@H](CC#N)NC(=O)c2ccc(N3C[C@@H](c4ccc(C(F)(F)F)cc4)CC[C@H]3COCC3CC3)cc2)cc1` [Example 109-1, N—((R)-2-cyano-1-(4-(ethylsulfonyl)phenyl)ethyl)-4-((2S,5R)-2-((cyclopropylmethoxy)methyl)-5-(4-(trifluoromethyl)phenyl)piperidin-1-yl)benzamide], for which the IC50 is 7 nM.

On to `NC(=O)OCC(C(=O)Nc1ccc(C(O)(C(F)(F)F)C(F)(F)F)cc1)c1ccc(S(=O)(=O)CC2CC2)cc1` (stereo not drawn) [Example 182, 2-(4-((cyclopropylmethyl)sulfonyl)phenyl)-3-((4-(1,1,1,3,3,3-hexafluoro hydroxypropan-2-yl)phenyl)amino)-3-oxopropyl carbamate], for which the IC50 was 55.8 nM.

As to `CCS(=O)(=O)c1ccc([C@H](CC#N)NC(=O)c2ccc(N3C[C@H](c4ccc(C(F)(F)F)cc4)CC[C@H]3COC(F)F)cc2F)cc1` [Example 111-1, N—((S)-2-cyano-1-(4-(ethylsulfonyl)phenyl)ethyl)-4-((2S,5S)-2-((difluoromethoxy)methyl)-5-(4-(trifluoromethyl)phenyl)piperidin-1-yl)-2-fluorobenzamide], the IC50 worked out at 16 nM.

For the molecule `CCS(=O)(=O)c1ccc([C@H](COC(N)=O)NC(=O)c2ccc(N3C[C@@H](Oc4ccc(Cl)cn4)C[C@H]3COC(F)F)cc2)cc1` [Example 153, (R)-2-(4-((2S,4S)-4-((5-chloropyridin-2-yl)oxy)-2-((difluoromethoxy)methyl)pyrrolidin-1-yl)benzoylamino)-2-(4-(ethylsulfonyl)phenyl)ethyl carbamate], the IC50 turned out to be 5 nM.

Regarding `CCS(=O)(=O)c1ccc([C@H](CC#N)NC(=O)c2ccc(N3C[C@@H](Oc4ccc(-n5nccn5)cc4)C[C@H]3COC(F)F)cc2)cc1` [Example 157, 4-((2S,4S)-4-(4-(2H-1,2,3-triazol-2-yl)phenoxy)-2-((difluoromethoxy)methyl)pyrrolidin-1-yl)-N—((S)-2-cyano-1-(4-(ethylsulfonyl)phenyl)ethyl)benzamide], the IC50 is 6.9 nM.

Turning to `CCS(=O)(=O)c1ccc([C@H](CC#N)NC(=O)c2ccc(N3C[C@@H](Oc4ccc(-n5cc(C)cn5)cc4)C[C@H]3COC(F)F)cc2)cc1` [Example 159, N—((S)-2-cyano-1-(4-(ethylsulfonyl)phenyl)ethyl)-4-((2S,4S)-2-((difluoromethoxy)methyl)-4-(4-(4-methyl-1H-pyrazol-1-yl)phenoxy)pyrrolidin-1-yl) benzamide], the IC50 was found to be 10.2 nM.

With `CCS(=O)(=O)c1ccc([C@H](CC#N)NC(=O)c2ccc(N3C[C@@H](c4ccc(C(F)(F)F)cc4)CC[C@H]3COC(F)F)c(F)c2)cc1` [Example 113-2, N—((S)-2-cyano-1-(4-(ethylsulfonyl)phenyl)ethyl)-4-((2S,5R)-2-((difluoromethoxy)methyl)-5-(4-(trifluoromethyl)phenyl)piperidin-1-yl)-3-fluorobenzamide], the concentration for half-maximal inhibition (IC50) is 13 nM.

With `CCS(=O)(=O)c1ccc([C@H](COC(N)=O)NC(=O)c2cnc(N3C[C@@H](Oc4ccc(Cl)cn4)C[C@H]3COC(F)F)c(F)c2)cc1` [Example 164, (R)-2-(6-((2S,4S)-4-((5-chloropyridin-2-yl)oxy)-2-((difluoromethoxy)methyl)pyrrolidin-1-yl)-5-fluoronicotinamido)-2-(4-(ethylsulfonyl)phenyl)ethyl carbamate], the IC50 stood at 3.1 nM.

For `CCS(=O)(=O)c1ccc([C@H](CC#N)NC(=O)c2ccc(N3C[C@@H](c4ccc(F)cc4)CC[C@H]3COC(F)F)cc2)cc1` [Example 114-2, N—((S)-2-cyano-1-(4-(ethylsulfonyl)phenyl)ethyl)-4-((2S,5R)-2-((difluoromethoxy)methyl)-5-(4-fluorophenyl)piperidin-1-yl)benzamide], the IC50 worked out at 23 nM.

The values are drawn from patent US20230121086A1, “RORgT INHIBITOR, PREPARATION METHOD THEREOF AND USE THEREOF” (SUNSHINE LAKE PHARMA CO., LTD., priority 2020, published 2023).
